Assay results published in PubChem BioAssay (NCI).
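All cell lines were grown in 96-well plates and treated with compound for 48 hours. The concentration for 50% growth inhibition is given as GI50. TGI marks complete inhibition of growth.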

Tests used:
Test in all cases: DTP human tumour cell line panel, 48 h
NCI-H226 lung = tested on: NCI-H226 lung
KM12 colon = tested on: KM12 colon
NCI/ADR-RES ovarian = tested on: NCI/ADR-RES ovarian
HOP-92 NSCLC = tested on: HOP-92 NSCLC
U251 CNS = tested on: U251 CNS
T-47D breast = tested on: T-47D breast
HCT-116 colon = tested on: HCT-116 colon
HCC-2998 colon = tested on: HCC-2998 colon
LOX IMVI melanoma = tested on: LOX IMVI melanoma
HOP-18 NSCLC = tested on: HOP-18 NSCLC
M19-MEL melanoma = tested on: M19-MEL melanoma

`CCCCCCCCCCCCO[P+](=O)OCCCCCCCCCCCC` gave a TGI (NCI-H226 lung) of over 100 µM, a TGI (KM12 colon) of 72.2 µM and a TGI (NCI/ADR-RES ovarian) of over 100 µM. It also gave a TGI (HOP-92 NSCLC) of over 100 µM, a TGI (U251 CNS) of over 100 µM and a TGI (T-47D breast) of over 100 µM. The TGI (HCT-116 colon) was over 100 µM and the TGI (HCC-2998 colon) was over 100 µM.

Compound `NC(=O)Oc1ccccc1` has a TGI (NCI-H226 lung) of over 100 µM, a TGI (KM12 colon) of over 100 µM and a TGI (NCI/ADR-RES ovarian) of over 100 µM. For the same compound, the TGI (HOP-92 NSCLC) was over 100 µM, the TGI (LOX IMVI melanoma) was over 100 µM and the TGI (U251 CNS) was over 100 µM. It also gave a TGI (T-47D breast) of over 100 µM, a TGI (HCT-116 colon) of over 100 µM and a TGI (HCC-2998 colon) of over 100 µM.

In the case of `C=C(C)[C@@H]1CC[C@]2(C(=O)NC(C)=O)CC[C@]3(C)[C@H](CC[C@@H]4[C@@]5(C)CCCNC(C)(C)[C@@H]5CC[C@]43C)[C@@H]12`, the GI50 (KM12 colon) is reported as 1.51 µM, the TGI (KM12 colon) is reported as 2.9 µM and the GI50 (NCI/ADR-RES ovarian) is reported as 1.83 µM. For the same compound, the TGI (NCI/ADR-RES ovarian) was 3.68 µM, the GI50 (HOP-92 NSCLC) was 1.33 µM and the TGI (HOP-92 NSCLC) was 2.89 µM. For the same compound, the GI50 (LOX IMVI melanoma) was 1.18 µM, the TGI (LOX IMVI melanoma) was 2.48 µM and the GI50 (U251 CNS) was 1.68 µM. It also gave a TGI (U251 CNS) of 3.26 µM, a GI50 (HCC-2998 colon) of 1.31 µM and a TGI (HCC-2998 colon) of 2.69 µM.

`CCOC(=O)Cn1c(=O)c(C)cn(COCCO)c1=O` showed a TGI (NCI-H226 lung) of over 100 µM, a TGI (KM12 colon) of over 100 µM and a TGI (NCI/ADR-RES ovarian) of over 100 µM. It also gave a TGI (HOP-92 NSCLC) of over 100 µM, a TGI (LOX IMVI melanoma) of over 100 µM and a TGI (U251 CNS) of over 100 µM. It also gave a TGI (T-47D breast) of over 100 µM and a TGI (HCC-2998 colon) of over 100 µM.

`O=C(CCC1CCCCN1)Nc1ccc2c(c1)C(=O)c1ccc(NC(=O)CCN3CCCCC3)cc1C2=O` (stereo not drawn) gave a TGI (NCI-H226 lung) of 18.6 µM, a TGI (KM12 colon) of 6.99 µM and a TGI (HOP-18 NSCLC) of 9.77 µM. It also gave a TGI (HOP-92 NSCLC) of 5.98 µM, a TGI (LOX IMVI melanoma) of 2.66 µM and a TGI (M19-MEL melanoma) of 5.71 µM. For the same compound, the TGI (U251 CNS) was 23.8 µM and the TGI (HCT-116 colon) was 4.96 µM.

`CCN(CC)CCO[Si](OCCN(CC)CC)(OCCN(CC)CC)OCCN(CC)CC` gave a TGI (NCI-H226 lung) of over 100 µM, a TGI (KM12 colon) of over 100 µM and a TGI (LOX IMVI melanoma) of over 100 µM. For the same compound, the TGI (M19-MEL melanoma) was over 100 µM, the TGI (U251 CNS) was over 100 µM and the TGI (HCC-2998 colon) was over 100 µM.

Compound `CN/N=C(\C(=O)Nc1ccc(C)c(C)c1)C(C(=O)OC)c1nc2ccc([N+](=O)[O-])cc2[nH]c1=O` (stereo not drawn) has a TGI (NCI-H226 lung) of over 100 µM, a TGI (KM12 colon) of over 100 µM and a TGI (HOP-92 NSCLC) of over 100 µM. The TGI (LOX IMVI melanoma) was over 100 µM, the TGI (M19-MEL melanoma) was over 100 µM and the TGI (U251 CNS) was over 100 µM. The TGI (HCT-116 colon) was over 100 µM and the TGI (HCC-2998 colon) was over 100 µM.

Work on `COC(=O)C1c2cc3c(c(O)c2C(O)CC1(C)O)C(=O)c1c(O)cc2c(c1C3=O)OC1OC2(C)C(O)C(N(C)C)C1O` (stereo not drawn) yielded a TGI (NCI-H226 lung) of over 31.9 µM, a TGI (KM12 colon) of over 19.9 µM and a TGI (NCI/ADR-RES ovarian) of 3.05 µM. It also gave a TGI (HOP-18 NSCLC) of over 100 µM, a TGI (HOP-92 NSCLC) of over 76.6 µM and a TGI (M19-MEL melanoma) of over 100 µM. The TGI (T-47D breast) was 4.6 µM.

In the case of `COc1ccc(-c2n/c(=C\c3c(O)[nH]c4ccccc34)cc3c2=Nc2ccccc2-3)cc1`, the GI50 (NCI-H226 lung) is reported as 15.1 µM, the TGI (NCI-H226 lung) is reported as 36.2 µM and the GI50 (KM12 colon) is reported as 0.695 µM. The TGI (KM12 colon) was 2.18 µM, the GI50 (NCI/ADR-RES ovarian) was 0.667 µM and the TGI (NCI/ADR-RES ovarian) was 3.04 µM. It also gave a GI50 (LOX IMVI melanoma) of 1.55 µM, a TGI (LOX IMVI melanoma) of 2.88 µM and a GI50 (U251 CNS) of 1.45 µM. It also gave a TGI (U251 CNS) of 2.76 µM, a GI50 (T-47D breast) of 2.22 µM and a TGI (T-47D breast) of 9.43 µM. The GI50 (HCT-116 colon) was 1.55 µM, the TGI (HCT-116 colon) was 2.88 µM and the GI50 (HCC-2998 colon) was 1.52 µM. The TGI (HCC-2998 colon) was 3.07 µM.

`S=c1nc[nH]c2c1ncn2C1CCCO1` (stereo not drawn) gave a TGI (KM12 colon) of over 100 µM, a TGI (HOP-18 NSCLC) of over 100 µM and a TGI (HOP-92 NSCLC) of over 100 µM. The TGI (LOX IMVI melanoma) was over 100 µM, the TGI (U251 CNS) was over 100 µM and the TGI (HCT-116 colon) was over 100 µM. It also gave a TGI (HCC-2998 colon) of over 100 µM.

In the case of `CCOC(C)OC1CC(n2cc(C)c(=O)[nH]c2=O)OC1CO` (stereo not drawn), the TGI (NCI-H226 lung) is reported as over 100 µM, the TGI (KM12 colon) is reported as over 100 µM and the TGI (HOP-18 NSCLC) is reported as over 100 µM. The TGI (HOP-92 NSCLC) was over 100 µM, the TGI (LOX IMVI melanoma) was over 100 µM and the TGI (M19-MEL melanoma) was over 100 µM. For the same compound, the TGI (U251 CNS) was over 100 µM, the TGI (HCT-116 colon) was over 100 µM and the TGI (HCC-2998 colon) was over 100 µM.

`CCOC(=O)C1=C(C)N(C2OC(COC(=O)c3ccccc3)C(OC(=O)c3ccccc3)C2OC(=O)c2ccccc2)C(=S)NC1c1ccccc1` (stereo not drawn) showed a TGI (NCI-H226 lung) of over 100 µM, a TGI (KM12 colon) of over 100 µM and a TGI (HOP-18 NSCLC) of over 100 µM. For the same compound, the TGI (LOX IMVI melanoma) was over 100 µM, the TGI (M19-MEL melanoma) was over 100 µM and the TGI (U251 CNS) was over 100 µM. For the same compound, the TGI (HCT-116 colon) was over 100 µM and the TGI (HCC-2998 colon) was over 100 µM.

`COc1ccc(C2=NC(c3ccc(Cl)cc3)C(c3ccc(Cl)cc3)N2C(=O)N2CCNC(=O)C2)c(OC(C)C)c1` (stereo not drawn) was tested, and the GI50 (NCI-H226 lung) was 2.08 µM, the TGI (NCI-H226 lung) was 4.19 µM and the GI50 (KM12 colon) was 1.84 µM. It also gave a TGI (KM12 colon) of 3.69 µM, a GI50 (NCI/ADR-RES ovarian) of 1.92 µM and a TGI (NCI/ADR-RES ovarian) of 3.83 µM. It also gave a GI50 (HOP-92 NSCLC) of 2.1 µM, a TGI (HOP-92 NSCLC) of 4.06 µM and a GI50 (LOX IMVI melanoma) of 1.78 µM. It also gave a TGI (LOX IMVI melanoma) of 3.33 µM, a GI50 (U251 CNS) of 1.84 µM and a TGI (U251 CNS) of 3.57 µM. The GI50 (T-47D breast) was 3.67 µM, the TGI (T-47D breast) was over 10 µM and the GI50 (HCT-116 colon) was 1.81 µM. For the same compound, the TGI (HCT-116 colon) was 3.2 µM, the GI50 (HCC-2998 colon) was 2.3 µM and the TGI (HCC-2998 colon) was 5.57 µM.

In the case of `CN1CN(C(=O)N2CN(C)C(=O)N(C)C2)CN(C)C1=O`, the TGI (NCI-H226 lung) is reported as over 100 µM, the TGI (KM12 colon) is reported as over 100 µM and the TGI (HOP-18 NSCLC) is reported as over 100 µM. For the same compound, the TGI (LOX IMVI melanoma) was over 100 µM, the TGI (M19-MEL melanoma) was over 100 µM and the TGI (HCT-116 colon) was over 100 µM. It also gave a TGI (HCC-2998 colon) of over 100 µM.

`C(=C/c1nc2ccccc2o1)/c1ccc2c(c1)OCO2` showed a TGI (NCI-H226 lung) of 55.2 µM, a TGI (KM12 colon) of 26.1 µM and a TGI (NCI/ADR-RES ovarian) of 39.5 µM. The TGI (HOP-18 NSCLC) was 60.8 µM, the TGI (HOP-92 NSCLC) was 69.7 µM and the TGI (LOX IMVI melanoma) was over 47.8 µM. It also gave a TGI (M19-MEL melanoma) of over 100 µM, a TGI (U251 CNS) of 42.1 µM and a TGI (HCT-116 colon) of 33.3 µM. It also gave a TGI (HCC-2998 colon) of over 70.8 µM.

`CC1OC(=O)C(C(C)C)NC(=O)C(C(C)C)OC(=O)C(C(C)C)NC(=O)C(C)OC(=O)C(C(C)C)NC(=O)C(C(C)C)OC(=O)C(C(C)C)NC(=O)C(C)OC(=O)C(C(C)C)NC(=O)C(C(C)C)OC(=O)C(C(C)C)NC1=O` (stereo not drawn) showed a TGI (NCI-H226 lung) of 0.779 µM, a GI50 (KM12 colon) of under 0.0001 µM and a GI50 (NCI/ADR-RES ovarian) of 0.0129 µM. The TGI (NCI/ADR-RES ovarian) was 0.117 µM, the TGI (HOP-18 NSCLC) was 0.0539 µM and the GI50 (HOP-92 NSCLC) was under 0.0001 µM. The GI50 (LOX IMVI melanoma) was under 0.0001 µM, the TGI (M19-MEL melanoma) was 6.28 µM and the GI50 (U251 CNS) was under 0.0001 µM. It also gave a TGI (U251 CNS) of 1.05 µM, a TGI (T-47D breast) of 0.0138 µM and a TGI (HCT-116 colon) of 2.91 µM. For the same compound, the GI50 (HCC-2998 colon) was under 0.0001 µM and the TGI (HCC-2998 colon) was 1.29 µM.

For `NS(=O)(=O)c1ccc(N=Nc2ccc(O)c(C(=O)O)c2)cc1`, the TGI (NCI-H226 lung) was over 100 µM, the TGI (KM12 colon) was over 100 µM and the TGI (NCI/ADR-RES ovarian) was over 100 µM. The TGI (HOP-92 NSCLC) was over 100 µM, the TGI (U251 CNS) was over 100 µM and the TGI (T-47D breast) was over 100 µM. It also gave a TGI (HCT-116 colon) of over 100 µM and a TGI (HCC-2998 colon) of over 100 µM.
